Test results published in US20070021391A1, “Preventive/remedy for urinary disturbance” (priority 2003, published 2007).
Where a name gives a salt, the structure may show the parent alone.

Legend:
male SD rat = experiment: Acetylcholine inductive salivation in rat (Example 5); type: in vivo; settings: for Amount of saliva secreted: rat
Method: (§1) A male SD rat (CLEA Japan Inc.) with a body weight of about 400 g or a Hartley male guinea pig with a body weight of 400 to 500 g (Japan SLC) were used. After urethane anesthesia, sanitary cotton preliminarily weighed was inserted in the mouth of the animal and acetylcholine was intravenously administrated. After 5 minutes, the sanitary cotton was taken out to be weighed and the amount of saliva secreted was measured. The drug was intravenously administrated at 10 min before the administration of acetylcholine. The effect of oxybutynin was analyzed by paired t calibration and the concomitant use effect of the compound A was analyzed by William calibration.

Hartley male guinea pig = experiment: Acetylcholine inductive salivation in guinea pig (Example 5); type: in vivo
Method: as §1

[1] = target: T1, butyrylcholine esterase of human serum origin (Homo sapiens, UniProt P06276); experiment: biochemical; type: biochemical; settings: mean value of twice tests; read-out: BuChE IC50
T1 construct: butyrylcholine esterase of human serum origin; purchased Biogenesis, Poole, UK; host or cells: human serum

[2] = target: T2, acetylcholine esterase of human erythrocyte origin (Homo sapiens, UniProt P22303); experiment: biochemical; type: biochemical
T2 construct: acetylcholine esterase of human erythrocyte origin; purchased Sigma, St. Louis, Mo., USA; host or cells: human erythrocytes
Method: The AChE inhibitory activity and the BuChE inhibitory activity were determined by a thiocholine method (Ellman method) using acetylcholine esterase of human erythrocyte origin (Sigma, St. Louis, Mo., USA) and butyrylcholine esterase of human serum origin (Biogenesis, Poole, UK). Acetylcholine esterase or butyrylcholine esterase was diluted to a concentration of 0.2 IU/mL with 80 mM tris-HCL buffers (pH=7.4) containing 0.3% bovine serum albumin (BSA) to prepare an enzyme preparation. […] The stock solution was diluted at 3-fold common ratio with 10% DMSO and 80 mM tris-HCl buffers containing 0.3% BSA. On a 96 wells microplate, 20 μL of the drug solution with a given concentration, 30 μL of 80 mM tris-HCl buffers containing 0.3% BSA and 50 μL of the enzyme preparation were distributed, and incubated at room temperature for 1 hour after shaking for 10 seconds. […] For the respective drugs, the test was repeated twice. The % of control of the increase in light absorption was calculated at each concentration with respect to the respective drugs. % of control=increase in light absorption of drug/increase in light absorption of control×100

[3] = tested on: Hartley male guinea pig, urethane anesthesia; experiment: Pressure/flow study using guinea pig under continuous phenylephrine (Example 4); type: in vivo; settings: 0.1 mg/kg, i.v.; phenylephrine 3 μg/animal/min
Method: A parameter (the maximum urine flow rate) at urination and a parameter (bladder compliance) at the collection of urine were also measured by a method similar as Example 3 shown below, with respect to the compounds B1 to B6 ([Table 8]).
A Hartley male guinea pig of 4 to 5 weeks old (Japan SLC) was used. After urethane anesthesia, the medial incision of the lower abdomen was carried out, and the bladder was exposed. Two injection needles (20G) with which a polyethylene tube (PE-100) was linked were inserted in the bladder, and one needle was used for injection of saline and another needle was used for measurement of the inner pressure of the bladder. A catheter was inserted in fernoral vein, and phenylephrine was continuously administrated at a flow rate of 3 μg/animal/min. Saline was continuously injected at a speed of 18 mL/h, the injection was stopped after intermittent urination was confirmed 2 times at minimum, and the saline in the bladder was removed by suction. Injection was started again, and the injection was stopped when the raise of the inner pressure of the bladder just before urination was confirmed. The amount of urine eliminated was measured by an electronic weighing machine and the inner pressure of the bladder was measured using a pressure transducer. The analogue data of the weight of urine and the inner pressure of the bladder were inputted in a multi-channel data analyzer (MP-100A-CE, Biopac systems), and analyzed by a proprietary software (Acqknowledge, Biopac systems). As the parameters, the maximum urine flow rate and bladder compliance were measured. Saline in the bladder was extracted after 10 min of the intravenous administration of the compound, and injection was started again to carry out measurement. The compounds were dissolved with DMSO so that administration volume was 0.5 mL/kg. The change rate of respective parameters before and after administration of the compounds was calculated and the calibration of significant difference was carried out by a solvent administration group and t calibration.

[4] = tested on: Hartley male guinea pig, urethane anesthesia; experiment: Urine flow dynamic parameters with oxybutynin and compound A (Example 6); type: in vivo; settings: oxybutynin 1 mg/kg
Method: A Hartley male guinea pig with a body weight of about 500 g (Japan SLC Hamamatsu) was used. After urethane anesthesia (1.4 g/kg, i.p.), the medial incision of the lower abdomen was carried out, and the bladder was exposed. Two injection needles (20G) with which a polyethylene tube (PE-100, Becton Dickinson, Franklin Lakes, N.J., USA) was linked were inserted in the bladder, and one needle was used for injection of saline and another needle was used for measurement of the inner pressure of the bladder. Further, a cannula (PE-10, Becton Dickinson) for injection of phenylephrine was inserted in right common jugular vein. […] The amount of urine eliminated was measured by an electronic weighing machine (GX-400, A&D, Tokyo) and the inner pressure of the bladder was measured using a pressure transducer (AP641G, NIPPON KODEN Corporation, Tokyo). The analogue data of the weight of urine and the inner pressure of the bladder were inputted in a multi-channel data analyzer (MP-100A-CE, Biopac systems), and analyzed by a proprietary software (Acqknowledge 3.7.1, Biopac systems). The sampling interval of data was 0.1 sec and a low pass filter was applied to the data of discharge amount and urine flow rate at 0.5 Hz in order to remove noise. A delay time of 0.1 sec in weighing the urine was rectified, and the urine flow rate was determined by differentiating the value of discharge amount. The dynamic state parameter of the flow of urine below was measured. A bladder volume, the maximum urine flow rate, urination efficiency (=amount of urination/bladder volume). The effect of oxybutynin was analyzed by the paired t calibration and the concomitant use effect of the compound A was analyzed by Dunnett calibration.

[5] = acetylcholine 1 mg/kg alone, 5 minutes

T2 sequence (P22303 32-617 isoform P22303-2 limits assumed): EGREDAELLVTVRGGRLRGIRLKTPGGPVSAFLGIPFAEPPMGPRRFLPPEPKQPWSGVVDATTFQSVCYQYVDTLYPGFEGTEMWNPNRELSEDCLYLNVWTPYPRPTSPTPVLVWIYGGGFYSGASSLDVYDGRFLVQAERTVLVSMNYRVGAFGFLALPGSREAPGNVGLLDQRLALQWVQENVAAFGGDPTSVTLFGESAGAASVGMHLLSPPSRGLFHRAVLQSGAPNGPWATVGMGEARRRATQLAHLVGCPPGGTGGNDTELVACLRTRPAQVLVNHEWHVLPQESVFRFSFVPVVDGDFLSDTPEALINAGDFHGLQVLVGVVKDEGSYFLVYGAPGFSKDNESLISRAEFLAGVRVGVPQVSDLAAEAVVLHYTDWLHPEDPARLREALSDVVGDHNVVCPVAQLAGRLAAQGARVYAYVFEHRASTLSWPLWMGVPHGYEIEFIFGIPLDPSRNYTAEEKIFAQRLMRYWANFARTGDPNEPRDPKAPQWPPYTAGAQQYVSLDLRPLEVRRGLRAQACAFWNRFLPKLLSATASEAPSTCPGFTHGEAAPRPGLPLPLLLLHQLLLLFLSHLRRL
T1 sequence (P06276 29-602): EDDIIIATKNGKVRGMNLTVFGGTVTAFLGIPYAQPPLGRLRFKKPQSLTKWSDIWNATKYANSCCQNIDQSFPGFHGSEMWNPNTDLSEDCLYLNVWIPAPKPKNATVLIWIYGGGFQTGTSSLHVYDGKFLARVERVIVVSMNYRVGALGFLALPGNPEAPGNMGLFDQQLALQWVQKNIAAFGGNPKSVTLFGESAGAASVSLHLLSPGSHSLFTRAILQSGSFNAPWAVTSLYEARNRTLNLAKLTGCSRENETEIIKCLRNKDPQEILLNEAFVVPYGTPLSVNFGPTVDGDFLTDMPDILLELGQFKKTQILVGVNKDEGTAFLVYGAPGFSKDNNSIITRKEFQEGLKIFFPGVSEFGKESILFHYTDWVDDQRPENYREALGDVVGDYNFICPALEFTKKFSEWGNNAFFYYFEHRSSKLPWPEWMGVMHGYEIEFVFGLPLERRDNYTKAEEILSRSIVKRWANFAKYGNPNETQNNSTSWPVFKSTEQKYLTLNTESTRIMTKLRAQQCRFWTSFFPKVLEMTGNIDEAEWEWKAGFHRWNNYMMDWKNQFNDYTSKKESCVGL

## CC(=O)OCC[N+](C)(C)C [Acetylcholine]
Male SD rat; [5]
  Amount of saliva secreted: 0.27 ± 0.04 g
Hartley male guinea pig; [5]
  Amount of saliva secreted: 0.23 ± 0.03 g

## Cn1c(=O)n(C)c2cc(C(=O)CCCCNCCc3ccccc3Cl)ccc21 [Compound B6, 5-[5-[[2-(2-chlorophenyl)ethyl]amino]pentanoyl]-1,3-dimethyl-1,3-dihydro-2H-benzoimidazol-2-one) hydrochloride]
[1]
  IC50: > 10000 nM
[2]; BuChE IC50/AChE IC50 (Table 3)
  Selectivity b/a: >140
[2]; mean value of twice tests, read-out: AchE IC50
  IC50: 71 nM
[3]
  Bladder compliance, proportion for value before administration: 98.6 ± 6.9
  Maximum urine flow rate, proportion for value before administration: 147.1 ± 26.2

## CCN(CC)CC#CCOC(=O)C(O)(c1ccccc1)C1CCCCC1 (centres unmarked) [Oxybutynin]
[4]; iv alone
  Bladder volume, proportion for value before administration (%): 28.87 ± 7.01 %
  Maximum urine flow rate, proportion for value before administration (%): −44.42 ± 9.44 %
  Urination efficiency, proportion for value before administration (%): −66.14 ± 5.91 %
[4]; compound A 0.003, 0.01 mg/kg with oxybutynin
  action on bladder volume, maximum urine flow rate and urination efficiency: significant increase of bladder volume and the lowering of the maximum urine flow rate and urination efficiency were confirmed
Male SD rat; rat and guinea pig (Tables 9 and 10)
  action on acetylcholine-induced secretion of saliva: significantly suppressed
Male SD rat; oxybutynin 0.1 mg/kg + acetylcholine 1 mg/kg
  Amount of saliva secreted: 0.17 ± 0.02 g
Hartley male guinea pig; oxybutynin 1 mg/kg + acetylcholine 1 mg/kg
  Amount of saliva secreted: 0.11 ± 0.02 g
